How the values were obtained:
Experiment in all cases: drug sensitivity score (DSS) (DSS (unitless, 0-50 scale)); higher = more sensitive (stronger viability inhibition); extreme values may be limits of the assay
Conditions in all cases: 72 h; culture: 2D
SK-MEL-2 = system: SK-MEL-2
In short: (§1)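 Patient-derived melanoma cultures and melanoma cell lines were grown in 2D in 384-well plates with a 527-compound oncology library at five concentrations spanning a 10,000-fold range, with 1000–1500 cells per well for the cultures. CellTiter-Glo luminescence gave viability after 72 h at 37 °C. The drug sensitivity score is a modified area-under-curve measure derived from dose-response curves fitted in the in-house Breeze software.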

SK-MEL-28 = system: SK-MEL-28
In short: as §1

WM165 = system: WM165
In short: as §1

WM852 = system: WM852
In short: as §1

FM-MEL-6 = system: FM-MEL-6
In short: as §1

Bowes = system: Bowes
In short: as §1

FM-MEL-2 = system: FM-MEL-2
In short: as §1

FM-MEL-3 = system: FM-MEL-3
In short: as §1

SMILES	drug sensitivity score (SK-MEL-2)	drug sensitivity score (SK-MEL-28)	drug sensitivity score (WM165)	drug sensitivity score (WM852)	drug sensitivity score (FM-MEL-6)	drug sensitivity score (Bowes)	drug sensitivity score (FM-MEL-2)	drug sensitivity score (FM-MEL-3)
CC[C@H](Nc1ncnc2[nH]cnc12)c1nc2cccc(F)c2c(=O)n1-c1ccccc1 [Idelalisib]	0	4.1	0.7	0.4	1.8	0.2	3.1	1
Cc1ccc(NC(=O)c2ccc(CN3CCN(C)CC3)cc2)cc1Nc1nccc(-c2cccnc2)n1 [Imatinib]	0	0.2	0.1	0.7	0	1	0.8	0
CC(C)Cn1cnc2c(N)nc3ccccc3c21 [Imiquimod]	0	0	0	0.1	0	4.7	0	0
O=C(Nc1ccncc1)C(=O)c1cn(Cc2ccc(Cl)cc2)c2ccccc12 [Indibulin]	3.7	4	7.8	5.3	6.9	11.1	1.4	6.1
CCN1CCN(c2ccc(Nc3cc(N(C)C(=O)Nc4c(Cl)c(OC)cc(OC)c4Cl)ncn3)cc2)CC1 [Infigratinib]	0	0	0	0	0	0	0	0
CC(C)NC[C@@H](C(=O)N1CCN(c2ncnc3c2[C@H](C)C[C@H]3O)CC1)c1ccc(Cl)cc1 [Ipatasertib]	0	1.7	2.2	0	0.9	0	2.1	0.3
CCC(C)n1ncn(-c2ccc(N3CCN(c4ccc(OCC5COC(Cn6cncn6)(c6ccc(Cl)cc6Cl)O5)cc4)CC3)cc2)c1=O (stereo unspecified) [Itraconazole]	0	0	0	0.9	0	4.7	1.4	2.8
N#Cc1ccnc(N2C(=O)CC[C@H]2C(=O)N(c2cncc(F)c2)[C@H](C(=O)NC2CC(F)(F)C2)c2ccccc2Cl)c1 [Ivosidenib]	0	0	0	0	0.3	0	0	0
C/C(=C\c1csc(C)n1)[C@@H]1C[C@@H]2O[C@]2(C)CCC[C@H](C)[C@H](O)[C@@H](C)C(=O)C(C)(C)[C@@H](O)CC(=O)N1 [Ixabepilone]	2.9	2.3	3.6	6.1	3.7	8.5	0.8	5
CC(C)C[C@H](NC(=O)CNC(=O)c1cc(Cl)ccc1Cl)B(O)O [Ixazomib]	11.2	9.6	10.4	0.9	17	8.8	4.9	13.6
Nc1cc(COc2c(Cl)cc(C[C@H](N)C(=O)O)cc2Cl)c2oc(-c3ccccc3)nc2c1 [JPH203]	0	0	0	0	0.6	0	0	0
CS(=O)(=O)CCNCc1ccc(-c2ccc3ncnc(Nc4ccc(OCc5cccc(F)c5)c(Cl)c4)c3c2)o1 [Lapatinib]	0	0	0	0	0.1	1.1	0.6	0.2
O=C(Nc1cnn2ccc(N3CCC[C@@H]3c3cc(F)ccc3F)nc12)N1CC[C@H](O)C1 [Larotrectinib]	0	0	0	0	0	0	0	0
Oc1ccc2c(c1)CC[C@H](c1ccccc1)[C@@H]2c1ccc(OCCN2CCCC2)cc1 [Lasofoxifene]	0	0	0	0	0	0	0	0
Nc1cccc2c1CN(C1CCC(=O)NC1=O)C2=O (stereo unspecified) [Lenalidomide]	0	0	0	0	0	0	0	0
COc1cc2nccc(Oc3ccc(NC(=O)NC4CC4)c(Cl)c3)c2cc1C(N)=O [Lenvatinib]	0	0	0	0	0	1.3	0	0
N#Cc1ccc(C(c2ccc(C#N)cc2)n2cncn2)cc1 [Letrozole]	0	0	0	0	0	0	0	0
Cc1ccc(F)c(NC(=O)Nc2ccc(-c3cccc4[nH]nc(N)c34)cc2)c1 [Linifanib]	0	0	0	0	0	2.2	0.1	0
C[C@]1(O)C[C@@H](c2nc(-c3ccc4ccc(-c5ccccc5)nc4c3)c3c(N)nccn32)C1 [Linsitinib]	0	0	1.3	1	0.9	0	3.6	4.8
CCNCCS(=O)(=O)NC[C@@]1(c2ccccc2)SC(NC(=O)C(C)(C)C)=NN1C(=O)C(C)(C)C [Litronesib]	13.1	2.2	18.9	23.7	10.2	18.8	2.4	8.6
Nc1nc(OCc2cc(Br)cs2)c2[nH]cnc2n1 [Lomeguatrib]	0	0	0	0	0	0	0	0

SMILES	drug sensitivity score (SK-MEL-2)	drug sensitivity score (SK-MEL-28)	drug sensitivity score (WM165)	drug sensitivity score (WM852)	drug sensitivity score (FM-MEL-6)	drug sensitivity score (Bowes)	drug sensitivity score (FM-MEL-2)	drug sensitivity score (FM-MEL-3)
NC(=O)N1CCC(CC(=O)N2CCC([C@H]3c4ncc(Br)cc4CCc4cc(Cl)cc(Br)c43)CC2)CC1 [Lonafarnib]	5.3	8.1	13	12.1	8.1	30.9	9.4	18.2
Cc1c(F)cc(C(=O)NC2CC2)cc1-c1ccc(C(=O)NCC(C)(C)C)cn1 [Losmapimod]	0	0	0	0	0	2.8	1.6	0.7
CC[C@H](C)C(=O)O[C@H]1C[C@@H](C)C=C2C=C[C@H](C)[C@H](CC[C@@H]3C[C@@H](O)CC(=O)O3)[C@H]21 [Lovastatin]	0	0	1.8	0.6	0	2.1	0	0.1
CNC(=O)c1cccc2cc(Oc3ccnc4cc(OCC5(N)CC5)c(OC)cc34)ccc12 [Lucitanib]	0	0	1.6	2.2	1.3	5.4	0.3	0
CCNC(=O)c1noc(-c2cc(C(C)C)c(O)cc2O)c1-c1ccc(CN2CCOCC2)cc1 [Luminespib]	9.3	9.2	20.3	9.7	8.1	15.2	10.7	21.4
O=C(O)CC[C@H]1CC[C@@](c2cc(F)ccc2F)(S(=O)(=O)c2ccc(Cl)cc2)CC1 [MK-0752]	0	0	0	0	0	0	0	0
NC1(c2ccc(-c3nc4ccn5c(=O)[nH]nc5c4cc3-c3ccccc3)cc2)CCC1 [MK-2206]	0	2	1.1	0.4	1.9	0	2.6	0.9
O=C(c1cccc(Cl)c1F)N1CCN(Cc2cccc(Nc3nccs3)n2)CC1 [MK-8745]	0	0.4	5.7	7.5	0	5.7	0	0.1
Cn1cc(-c2cnn3c(N)c(Br)c([C@@H]4CCCNC4)nc23)cn1 [MK-8776]	2	0	0	1.9	0	0.9	0	1.7
Cc1cnc(-c2ccccc2C(C)C)nc1NCc1ccc(-n2ccnn2)cc1 [ML323]	0	0	1.1	0.9	0	0.6	0	1.2
O=C(CCNC(=O)c1ccc(OC(F)(F)F)cc1)N[C@@H]1CCCc2ccccc21 [ML390]	0	2.8	6.8	0	1.2	0	0	6.7
O=C(Nc1cccc(NC(=O)c2cccc(O)c2O)c1)c1cccc(O)c1O [MST-312]	6.7	8.4	16	6.8	4	11.4	6.1	10.3
CNC(=O)[C@@H](NC(=O)[C@H](CC(C)C)[C@H](O)C(=O)NO)C(C)(C)C [Marimastat]	0	0	0.6	0	0	0	0	0
Cc1ccc(NC(=O)c2ccc(CN3CCN(C)CC3)cc2)cc1Nc1nc(-c2cccnc2)cs1 [Masitinib]	2.1	3.5	3.3	5.7	4.4	2.3	6.4	4.3
CC(=O)O[C@]1(C(C)=O)CC[C@H]2[C@@H]3C=C(C)C4=CC(=O)CC[C@]4(C)[C@H]3CC[C@@]21C [Megestrol acetate]	0	0	0	0	0	0	0	1
CCN(CC)CCCC(C)Nc1c2ccc(Cl)cc2nc2ccc(OC)cc12 (stereo unspecified) [Mepacrine]	13.6	10.3	17.1	17	14.2	19.6	15.1	9.9
S=c1[nH]cnc2nc[nH]c12 [Mercaptopurine]	0	3.8	7.3	5.5	0.5	1.9	0.1	0
Cc1ccc(C(=O)Nc2ccc(Oc3cc4cnn(C)c4cc3-c3cn[nH]c3)c(F)c2)c(=O)n1-c1ccc(F)cc1 [Merestinib]	0	0.4	0	2.2	0	0	0	0
CN(C)C(=N)NC(=N)N [Metformin]	0	0	0	0	0	0	0	0
CN(Cc1cnc2nc(N)nc(N)c2n1)c1ccc(C(=O)N[C@@H](CCC(=O)O)C(=O)O)cc1 [Methotrexate]	0	9	14.4	0	0	27.7	0	0
C[C@H]1C[C@@H]2[C@H]([C@@H](O)C[C@@]3(C)[C@H]2CC[C@]3(O)C(=O)CO)[C@@]2(C)C=CC(=O)C=C12 [Methylprednisolone]	0	0.4	0	0	0	1	0	1.2
